In patent US4393178A, “Fast crystallizing polyester compositions” (priority 1979, dated 1983):
Where “and” joins values, the source holds several entries; their conditions need not be identical. Equal values may be shown once. Read-outs that look alike come from different tables or passages of the source.

Experiments:
[1] = Half-crystallisation time (t1/2), isothermal DSC; assay type: physicochemical
Experimental: A DSC 2 Perkin Elmer scanning calorimeter was used.
10 mg of the sample of polymer material are placed in a capsule and introduced into the apparatus, wherein the sample is quickly heated to a temperature of 290° C. at which it is maintained during 1 minute.
The molten polymer material is then very quickly cooled by means of liquid air (at a rate of 320° C. per minute) until the crystallisation temperature is reached.
The crystallisation isotherm is registered on a temperature-time graph and the peak appearing on the registered isotherm is taken as the half-crystallisation time (t1/2).

[2] = Degradation constant K (melt degradation performance); assay type: physicochemical; design: unit not given here; details: 1% salt in PET, 2-roll mill 270 °C 5 min; molten state 290 °C
Experimental: The melt degradation performance is a measure of the extent of degradation under molten conditions. A convenient method of quantifying the performance is by measuring the "K value". A method for determining this value in the molten state using an Instron Capillary rheometer is given in a paper by J. Devaux et al in Makromol.
This method is carried out on samples prepared by reacting the salt with the polyester on a 2 roll-mill at a temperature above the melting point of the polyester for 5 minutes and then pressing the product obtained into a 2 mm thick sheet using the same temperature for 3 minutes before cooling to room temperature. The method is described for polyethylene terephthalate but can be readily adapted for other polyesters.
For polyethylene terephthalate the K value in the presence of salt should be less than 60.

[3] = ΔT = Tc(cooling) - Tn(heating), DSC; assay type: physicochemical; details: 1% salt in PET, 2-roll mill 270 °C 5 min; 10 °C/minute
Experimental: An alternative method for assessing the effectiveness of nucleation of an additive is to compare the difference between the value of the crystallisation peak on cooling (Tc) with that on heating (Tn) for a composition containing an ionisable salt. The value obtained from this comparison, Tc(cooling) -Tn(heating) is termed ΔT. […] Samples of polyester together with 1% of the salt under test were mixed in a 2-roll mill at 270° C. for 5 minutes. The sample produced was pressed into 2 mm thick sheets at 270° C. for 3 minutes and then cooled to room temperature. 10 mg of the sample was placed in a capsule and rapidly heated to 290° C. After maintaining this temperature for 1 minute the capsule was quenched in water. The crystallisation peak temperatures on heating (Tn) and cooling (Tc) were determined using heating and cooling rates of 10° C./minute on a Perkin Elmer DSC 2 machine.

[4] = Solubility parameter δ of the acid
[5] = cited from earlier work
[6] = Crystallisation peak temperature on heating (Tn), DSC; assay type: physicochemical; details: for Tn(composition)-Tn(polyester): PET I.V. 0.73 + 1% salt, 2-roll mill 300 °C 2 min, 10 °C/minute
Experimental: In one such DSC technique the crystallisation peak temperature difference, Tn(composition)--Tn(polyester) is determined by measuring the crystallisation peak temperatures on heating for the composition in comparison with the polyester of the composition not containing the ionisable salt. The detailed procedure is as follows. Compositions were prepared from the polyester and the additive by mixing on a 2-roll mill at 300° C. for 2 minutes. The sample was taken from the mill and pressed into a film in a compression moulding machine. 10 mg samples of the composition were placed in a capsule, rapidly heated to 290° C. and maintained at that temperature for 1 minute. The capsule was then dropped into water to quench the polymer and prevent crystallisation. The sample was then placed in a Perkin Elmer DSC 2 machine and heated at a rate of 10° C./minute until reaching a temperature of 290° C. The crystallisation peak temperature observed on this heating cycle is recorded and compared with the value for the polyester not containing the additive.
Samples of polyethylene terephthalate (I.V. =0.73) containing 1% of the salts listed in Table 2 were prepared by compounding at 300° C. on a 2-roll mill for 2 minutes. The samples were evaluated to determine Tn(composition-Tn(polyester), the total number of end groups, the number of carboxylate groups and the number of hydroxyl and carboxyl groups.
The salts listed in Table 3 were deposited from solution on the surface of polyethylene terephthalate chip to give a concentration of 1% by weight of salt. The product was dried under vcuum at 96° C. for 3 hours. The compositions were pressed into film using a temperature of 280° C. for 1 minute. The DSC measurements were made after quenching from the melt to prevent crystallisation and using a heating rate of 16° C./minute.
1% by weight of the sodium salt of saccharin was deposited on the surface of granules of a polyethylene terephthalate homopolymer of I.V. =0.73 by evaporating an aqueous solution of the salt from the granules by drying at 96° C. under vacuum for 3 hours. The granules obtained were compression moulded into film by pressing at 280° C. for 60 second. The film was used for measurements of Tn at a heating rate of 16° C./minute.
The effect of the salts listed in Table 4 was determined by taking granules of a polymer of poly(ethylene terephthalate) homopolymer having an intrinsic viscosity of 0.73 and evaporating a solution of the salt in methanol or water from the surface of the granules by drying at 96° C. under vacuum for 3 hours. The proportions of polymer and solution used were such as to give a concentration of 1% of salt by weight of the final dry composition. The granules obtained were compression-moulded into film at 280° C. for various periods of time. The film was used for measurement of Tn as hereinbefore described.
Two samples of polyethylene terephthalate chip (I.V. =0.73) were coated from solution with 1% of the sodium salt of o-hydroxybenzoic acid and the disodium salt of the same acid respectively. After drying for 3 hours in a vacuum oven at 95° C. films were prepared by pressing the products for 1 minute at 280° C.

End group determination = assay type: physicochemical; details: PET I.V. 0.73 + 1% salt, 2-roll mill 300 °C 2 min
Experimental: The numbers of hydroxyl and carboxyl groups were also determined according to the procedure given in this paper.
[…] The samples were evaluated to determine Tn(composition-Tn(polyester), the total number of end groups, the number of carboxylate groups and the number of hydroxyl and carboxyl groups.

[7] = 110 °C, 1% salt in PET, 2-roll mill 270 °C 5 min, after melting 1 minute at 290 °C
[8] = 120 °C, 1% salt in PET, 2-roll mill 270 °C 5 min, after melting 1 minute at 290 °C
[9] = acid from which the salt is derived, in water

Row | SMILES | t1/2 (sec) 110° C. [1, 7] [s] | t1/2 (sec) 120° C. [1, 8] [s] | K [2] | ΔT [3] [°C] | δ × pKH.sbsb.2O ([4]; product for the acid) | pKH.sbsb.2O [5, 9] | t1/2 (sec) 110° C. [1] [s] | t1/2 (sec) 120° C. [1] [s] | further results
1 | O=C(O)c1c(O)cc(O)cc1O [2,4,6-dihydroxy benzoic acid] | 110 | 50 | 37 | 97 | 26 | 1.7 |  |  | 
2 | O=C(O)c1ccc(O)cc1O [2,4-dihydroxy benzoic acid] | 95 | 45 | 35 | 99 | 47 | 3.2 |  |  | 
3 | O=C(O)c1cc(O)ccc1O [2,5-dihydroxy benzoic acid] |  |  | 22 | 103 |  | 3 | 85 | 48 | 
4 | O=C(O)c1cc([N+](=O)[O-])ccc1Cl [2-chloro-5-nitrobenzoic acid] | 65 | 40 | 52 | 108 | 29 |  |  |  | pKH.sbsb.2O ([5]; water): 2.2
5 | O=C(O)c1cc([N+](=O)[O-])cc([N+](=O)[O-])c1 [3,5-dinitrobenzoic acid] | 85 | 45 | 44 | 102 | 38 | 2.8 |  |  | 
6 | O=S(=O)(O)c1ccccc1 [Sodium benzene sulphonate, reference compound] |  |  |  |  |  |  |  |  | Tn [6]: 146 °C and 141.5 °C; Dissociation Constant ([5]; water): 2 × 10^-1
7 | O=C(O)c1cccc(Cl)c1 [meta-chlorobenzoic acid] |  |  | 31 | 107 | 47 | 3.8 | 63 | 40 | 
8 | O=C(O)c1cccc([N+](=O)[O-])c1 [meta-nitrobenzoic acid] |  |  | 20 | 106 | 30 |  | 65 | 45 | pKH.sbsb.2O ([5]; water): 2.2
9 | O=C(O)c1cccc(O)c1 [metra-hydroxy benzoic acid] | 165 | 55 | 86 | 91 | 54 | 3.9 |  |  | 
10 | O=C(O)c1ccc(F)cc1 [para fluorobenzoic acid] | 70 | 38 | 60 | 104 | 50 | 4.1 |  |  | 
11 | O=C(O)c1ccc([N+](=O)[O-])cc1 [para-nitrobenzoic acid] | 75 | 54 | 79 | 102 | 46 |  |  |  | pKH.sbsb.2O ([5]; water): 3.4
12 | O=C(O)c1ccc(Oc2ccccc2)cc1 [para-oxyphenylbenzoic acid] |  |  | 40 | 105 | 47 | 3.5 | 73 | 38 | 
13 | O=C(O)c1ccccc1 [sodium benzoate, reference compound] |  |  | 88 | 99 |  |  | 90 | 45 | δ × pKH.sbsb.2O [4]: 55; Tn ([6]; 1% salt on PET I.V. 0.73 from solution, time in press 30 sec at 280 °C): 115.5 °C; Tn ([6]; 1% salt on PET I.V. 0.73 from solution, time in press 60 sec at 280 °C): 117 °C; Tn(composition)-Tn(polyester) [6]: 27 °C; % of carboxylate end group (End group determination): 9.6%; End Groups --COOH (End group determination): 44 moles × 10^-6 g^-1; End Groups --OH (End group determination): 54 moles × 10^-6 g^-1; End Groups Carboxylate (End group determination): 13 moles × 10^-6 g^-1; End Groups Total from solution I.V. (End group determination): 136 moles × 10^-6 g^-1
14 | CC(C)(C)c1ccc(C(=O)[O-])cc1.[Na+] [sodium para-tert-butylbenzoate, reference compound] |  |  | 109 | 92.5 | 62 |  | 150 | 55 | Tn(composition)-Tn(polyester) [6]: 19 °C; % of carboxylate end group (End group determination): 2.5%; End Groups --COOH (End group determination): 83 moles × 10^-6 g^-1; End Groups --OH (End group determination): 56 moles × 10^-6 g^-1; End Groups Carboxylate (End group determination): 4 moles × 10^-6 g^-1; End Groups Total from solution I.V. (End group determination): 157 moles × 10^-6 g^-1
